Legend:
[1] = gadoxetate disodium-enhanced CT scan of a human patient; type: in vivo
Method: (§1) A patient was undergoing evaluation for living liver donation.
FIG. 7A is an enhanced CT scan image of their liver using gadoxetate disodium as a contract agent according to principles of the invention. […] In this particular patient the CT scan was obtained 99 minutes after the gadoxetate disodium-enhanced MRI shown in FIG. 7B, a relatively long interval to image gallbladder filling. A better contrast resolution is expected when using shorter interval. The highest concentration of contrast within the gallbladder, and therefore the best contrast resolution, is expected between 30 to 60 minutes from the time of intravenous injection of contrast.
The CT scan technique used included a slice thickness of 4.00 mm, and a field of view of 283.0 mm. The x-ray radiation was generated using 120 kV and a current of 182 mA, with a tube current of 182 mA and tube current-time product of 213 mAs.

[2] = gadoxetate disodium-enhanced MRI of the same patient; type: in vivo, human; settings: MRI 20 minutes following intravenous administration
Method: as §1
FIG. 7B is a gadoxetate disodium-enhanced MRI image of the same patient. […] The MRI of FIG. 7B was obtained 20 minutes following intravenous administration of gadoxetate disodium.

SMILES: CCOc1ccc(CC(CN(CCN(CC(=O)[O-])CC(=O)[O-])CC(=O)[O-])N(CC(=O)[O-])CC(=O)[O-])cc1.[Gd+3].[Na+].[Na+] (stereo not drawn) [gadoxetate disodium, Gadoxetate disodium]
- gallbladder opacification under CT imaging conditions ([1]; following intravenous injection): clearly demonstrates gallbladder opacification
- visualization of excreted hepatobiliary contrast in the gallbladder on CT ([1]; patient, arterial phase CT at 120 kV, 182 mA, 99 minutes after the gadoxetate disodium-enhanced MRI): anti-dependant hyperdensity within the gallbladder fundus
- visualization of excreted contrast in the gallbladder on MRI [2]: excreted contrast within the gallbladder lumen

Source: US20170095578A1, “CT SCANS USING GADOLINIUM-BASED CONTRAST AGENT” (UNIVERSITY OF MASSACHUSETTS MEDICAL SCHOOL, priority 2014, published 2017)
